Series [1] concerns MCF-7TN-R cells. As to the kind of experiment: Cellular sphingolipid species by lipidomics analysis. Format: cell-based, Human. Particulars: 10 μM, 24 h. The method, then: (§1) (A) MCF-7, (B) MDA-MB-231, and (C) MCF-7TN-R cells were treated with ceramide (10 μM) and II-3 (10 μM) for 24 h. The values are the mean±SE of two independent experiments. S2 Endogenous lipid levels were quantified by mass spectrometry (Lipidomics Core, Medical University of South Carolina) according to published methods. Briefly, cells were collected, fortified with internal standards and extracted with ethyl acetate/isopropyl alcohol. ESI/MS/MS analyses of sphingoid bases, sphingoid base 1-phosphates, ceramides, and sphingomyelins were performed on a Thermo Finnigan TSQ 7000 triple quadrupole mass spectrometer.
(§2) The effect of compound II-3 on endogenous sphingolipid levels was compared to C8-ceramide using Lipidomics Analysis (FIG. 19-21). Dihydrosphingosine is elevated following compound II-3 treatment, with almost a 50 fold increase in MCF-7TN-R cells. Sphingosine-1-phosphate, the proliferative metabolite of ceramide, decreased in all three cell lines. C8-ceramide had the opposite effect and increased sphingosine-1-phosphate levels.

The subject of series [2] is MDA-MB-231 cells. The series is described as above. Type of series: cell-based, Human. Particulars: 10 μM, 24 h. The protocol: as §1, §2
The subject of series [3] is MCF-7 cells. The description is as above. Type of series: cell-based, Human. Particulars: 10 μM, 24 h. The method, then: as §1, §2
For series [4], the system named is MCF-7 cells. Description: Apoptosis ELISA assay (Cell Death Detection ELISA, Roche). Type of series: cell-based, Human. Particulars: double the IC50 concentration (ceramide 8.3 μM, II-3 9.4 μM). The protocol:
The induction of apoptosis by compounds was assayed using the nucleosome ELISA kit (Roche). The kit quantified formation of cytoplasmic histone-associated oligonucleosome DNA fragments resulting from apoptosis. […] The induction of apoptosis was determined by the amount of nucleosomes in the cytoplasm per the manufacturer's protocol. The values are the mean±SE of three independent experiments.
The ability of compound II-3 to induce apoptosis in MCF-7 cells was tested. Using a Cell Death Detection ELISA (Roche) to assess apoptosis, IC50 was measured for compound II-3 and C8-ceramide.
Background: ELISA stands for enzyme-linked immunosorbent assay.

Series [5] deals with MCF10A (normal breast epithelial) cells. As to the kind of experiment: Proliferation assay in normal breast epithelial cells. To be noted: for effect on normal breast epithelial proliferation: MCF10A, even at 100 μM, 24 h. Format: cell-based. The method, then: MCF10A cells were treated with varying concentrations of drug (0.1-100 μM) for 24 h. The values are the mean±SE of four independent experiments.
The selectivity of compound II-3 and C8-ceramide to inhibit cell growth of cancer cells was determined by performing proliferation assays using MCF10A (normal breast epithelial) cells (FIG. 18).

Series [6] has as its system MCF-7TN-R cells. Description: Clonogenic survival assay. Format: cell-based, Human. The method, then:
(§3) Human cancer cell lines derived from breast, MCF-7, endocrine-resistant MDA-MB-231, and chemoresistant MCF-7TN-R were cultured in 75 cm^2 culture flasks in DMEM (Invitrogen, Co.) supplemented with 10% FBS (Life Technologies, Inc., Gaithersburg, Md.), basic minimum MEM essential (50×, Invitrogen Co.) and MEM non-essential (100×, Invitrogen, Co.) amino acids, sodium pyruvate (100× Invitrogen Co.), antimicotic-antibiotic (10,000 U/mL penicillin G sodium; 10,000 μg/mL streptomycin sulphate; 25 μg/mL amphotericin B as Fungizone®), and human recombinant insulin (4 mg/mL Invitrogen Co). Culture flasks were maintained in a tissue culture incubator in a humidified atmosphere of 5% CO2 and 95% air at 37° C.
(§4) MCF-7, MDA-MB-231, or MCF-7TN-R cells were plated in 6-well plates at 1000 cells per well. Twenty-four hours later, cells were treated with varying concentrations of the compound and then monitored microscopically for colony growth. Ten days later the cells were fixed with 3% glutaraldehyde. Following fixation for 15 min, the plates were washed and stained with a 0.4% solution of crystal violet in 20% methanol for 30 min, washed with PBS, and air-dried. Colonies of 30 cells were counted as positive. Results are normalized to percent clonogenic survival from untreated control cells. Statistical analysis of IC50 values were calculated from concentration-response curves using GraphPad Prism 5.0 (Graphpad Software, San Diego, Calif.), using with the equation: Y=Bottom+(Top−bottom)/1+10 Log EC50−X.
(§5) Compounds II-1, II-2, II-3, II-4, II-5, and II-6 were compared for their inhibitory effect on breast cancer clonogenic survival. Cells were treated with varying concentration of compound, ranging from 0.1 μM-20 μM for 10 days. […] At endpoint, cell colonies were fixed, stained and recorded as percent vehicle control.

The subject of series [7] is MDA-MB-231 cells. As to the kind of experiment: Clonogenic survival assay. Type of series: cell-based, Human. The protocol:
as §3, §4, §5

The test system of series [8] is MCF-7 cells. As to the kind of experiment: Clonogenic survival assay. Type of series: cell-based, Human. The protocol: as §3, §4, §5
In series [9] the test system is MCF-7TN-R cells. As to the kind of experiment: Viability assay using MTT. Particulars: Homo sapiens, 24 h, compounds 0.1 to 100 μM, unit inferred, read-out: MCF-7TN-R (IC50), Viability Assays. Type of series: cell-based. The method, then: as §3
(§6) The effect of ceramide and compounds on cell growth was determined using MTT viability assays. MCF-7, MDA-MB-231, or MCF-7TN-R cells were plated at […] cells per well in a 96-well plate in phenol-free DMEM supplemented with 5% FBS and allowed to adhere overnight. Cells were then treated with compounds I-1, I-2, I-3, or I-4 (ranging from 0.1 to 100 μM) for 24 h. Following that treatment, 20 μL of MTT (5 mg/ml) reagent was added to each well prior to incubation for 4 hr. Cells were then lysed with 20% SDS in 50% dimethylformamide. The pH and absorbances were read on an EL×808 Microtek plate reader (Winooski, Vt.) at 550 nm, with a reference wavelength of 630 nm.
(§7) Statistical analysis of IC50 values were calculated from concentration-response curves using GraphPad Prism 5.0 (Graphpad Software, San Diego, Calif.), using with the equation: Y=Bottom+(Top−bottom)/1+10 Log EC50−X assuming a standard slope, where the response goes from 10% to 90% of maximal as X increases over two log units. Differences in IC50 were compared using Student's unpaired t-test with p<0.05 as the limit of statistical significance. Experiments comparing multiple concentrations to the control were tested with one-way ANOVA with Bonferroni post-test to compare individual concentrations. All statistical analysis were done using GraphPad Prism 5.0. […].

The test system of series [10] is MDA-MB-231 cells. Description: Viability assay using MTT. To be noted: Homo sapiens, 24 h, compounds 0.1 to 100 μM, unit inferred, read-out: MDA-MB-231 (IC50), Viability Assays. Type of series: cell-based. The method, then:
as §3, §6, §7

For series [11], the system named is MCF-7 cells. Description: Viability assay using MTT. Format: cell-based. Particulars: Homo sapiens, MCF7, 24 h, compounds 0.1 to 100 μM, unit inferred, read-out: MCF-7 (IC50), Viability Assays. The method, then:
as §3, §6, §7

The test system of series [12] is MDA-MB-231 cell line. Description: Proliferation assay. Format: cell-based. To be noted: Homo sapiens, FIG. 16, read-out: anti-proliferative IC50, MDA-MB-231. The protocol:
(§8) The ability of compound II-3 to block proliferation as an anti-survival mechanism in addition to apoptosis was determined by measuring anti-proliferative effects.

Series [13] concerns MCF-7 cell line. As to the kind of experiment: Proliferation assay. Format: cell-based. To be noted: Homo sapiens, MCF7; FIG. 15; read-out: anti-proliferative IC50, MCF-7. The method, then: as §8
The test system of series [14] is MCF-7TN-R cells. Description: Proliferation assay. Format: cell-based. To be noted: Homo sapiens; FIG. 17; read-out: anti-proliferative IC50, MCF-7TN-R. The method, then: as §8
Nineteen compounds were synthesized using fifteen benzaldehydes as starting material. […] These were tested as potential anti-proliferative agents in MCF-7TN-R cells, and the structure-activity relationships were studied using several parameters. […] In compounds containing a methyl group, a significant increase of the PAC (C) in o-substituted compound was detected, which may account for the increased anti-proliferation activity. Ortho-substituted analogs with electron withdrawing groups by induction can have beneficial effects, and PAC (C) can be a useful predictor of the structural property of the molecule.

Where [15] appears, read: Table 2, 0.1 μM-20 μM for 10 days, read-out: MCF-7-TNR (IC50), clonogenic survival.
Where [16] appears, read: Table 2, 0.1 μM-20 μM for 10 days, read-out: MDA-MB-231 (IC50), clonogenic survival.
Setting [17] is: Table 2, 0.1 μM-20 μM for 10 days, read-out: MCF-7 (IC50), clonogenic survival.
The mark [18] stands for this setting: Homo sapiens, 240 h, Table 1B, 10 days, read-out: MCF-7TN-R (IC50), Clonogenic Survival Assays.
[19] abbreviates: Homo sapiens, MDA-MB-231, 240 h, Table 1B, 10 days, read-out: MDA-MB-231 (IC50), Clonogenic Survival Assays.
Setting [20] is: Homo sapiens, MCF7, 240 h, Table 1B, 10 days, read-out: MCF-7 (IC50), Clonogenic Survival Assays.

Structures are written as SMILES.

By IC50 is commonly meant the concentration that gives 50% inhibition. As to `CCCCCCCCCCCCC/C=C/[C@@H](O)[C@H](CO)NC(=O)CCCCCCC` [Compound C8-Cer, D-erythro N-octanoyl sphingosine, reference compound], the Sphingosine-1-phosphate level result in series [1], in [2] and in [3] was “increased” each time. In addition, in series [4] (24 hours), the “fold induction in apoptosis” value came to 5.0 fold. Further, in [5], the “effect on normal breast epithelial proliferation” value is given as “little effect”. Moreover, the figures for the IC50 in series [6] (setting [15]), in series [7] (setting [16]) and in series [8] (setting [17]) were 8.6 µM, 3 µM and 4.2 µM, respectively.
Take `CCCCCCCCCCCCC/C=C/[C@@H](O)[C@H](CO)NC(=O)C1CCCCC1` [Compound I-1, N-((2S,3R,E)-1,3-dihydroxyoctadec-4-en-2-yl)cyclohexanecarboxamide]: the IC50 in series [6] (setting [18]) came out at 0.7 µM; in series [7] (setting [19]), 1.6 µM; in series [8] (setting [20]), 1.5 µM; in [9], 2.4 µM; in [10] it was 5.4 µM; in series [11] it was 22.6 µM.
With `CCCCCCCCCCCCC/C=C/[C@@H](O)[C@H](CO)NCc1ccccc1` [Compound I-2, (2S,3R,E)-2-(benzylamino)octadec-4-ene-1,3-diol], the IC50 worked out at 0.6 µM in series [6] (setting [18]); 1.1 µM in series [7] (setting [19]); 1.5 µM in series [8] (setting [20]); 3 µM in series [9]; 3.7 µM in series [10]; 6.3 µM in series [11].
In the case of `CCCCCCCCCCCCC/C=C/[C@@H](O)[C@H](CO)/N=C/c1ccccc1` [Compound I-3, (2S,3R,E)-2-((E)-benzylideneamino)octadec-4-ene-1,3-diol], the concentration for half-maximal inhibition (IC50) in [6] (setting [18]) is 0.1 µM; in series [7] (setting [19]), 1.4 µM; in series [8] (setting [20]), 1.7 µM; in series [9] it was 3.6 µM; in [10] it was 4.8 µM; in series [11], 9 µM.
As for `CCCCCCCCCCCCC/C=C/[C@@H](O)[C@H](CO)NC(=O)C(C)(C)C` [Compound I-4, N-((2S,3R,E)-1,3-dihydroxyoctadec-4-en-2-yl)pivalamide], the IC50 was 0.6 µM in [6] (setting [18]); 0.5 µM in series [7] (setting [19]); 1.5 µM in series [8] (setting [20]); 4.2 µM in [9]; 8 µM in series [10]; 13.5 µM in series [11].
As usually defined, the fold induction is the ratio of treated to control signal. Higher therefore signals a strong induction. In turn, `CCCCCCCCCCCCCCNC(=O)[C@H](CO)N=Cc1ccccc1` [II-3, (S)-2-(benzylideneamino)-3-hydroxy-N-tetradecylpropanamide] gave a Dihydrosphingosine fold increase in series [1] of approximately 50 fold. Also, the Sphingosine-1-phosphate level result in series [1], in series [2] and in [3] was “decreased” each time. The molecule further came in with a fold induction at 9.4 µM in series [4] (Homo sapiens, MCF7, 24 hours) of 5.4. Also, the IC50 in series [12] was determined as 1.8 µM; in series [13] it was 4.5 µM; in series [14], 1.2 µM; in series [6] (Homo sapiens, 240 h, Table 2, 0.1 μM-20 μM for 10 days, read-out: MCF-7-TNR (IC50), clonogenic survival), 7.67 µM; in series [6] (setting [15]) it was 7.7 µM; in series [7] (Homo sapiens, MDA-MB-231, 240 h, Table 2, 0.1 μM-20 μM for 10 days, read-out: MDA-MB-231 (IC50), clonogenic survival), 2.35 µM. For the same molecule, the IC50 was 2.4 µM in [7] (setting [16]); 4.69 µM in series [8] (Homo sapiens, MCF7, 240 h, Table 2, 0.1 μM-20 μM for 10 days, read-out: MCF-7 (IC50), clonogenic survival); 4.7 µM in series [8] (setting [17]). In addition, the “100 μM (little effect in MCF10A) as fold of the IC50 value in chemoresistant cells” value in [5] (MCF10A versus chemoresistant cells) was “greater than 50 fold”. The “effect on normal breast epithelial proliferation” value in series [5] is given as “little effect”.

Source of the values: patent publication US8853452B2, “Compounds, their syntheses, compositions, and methods to treat cancer” (The Administrators of the Tulane Educational Fund, priority 2009, dated 2014).
